Values after ≈ are worked out from the molar mass of the structure shown. Like-named read-outs stand apart in the source and are kept apart here.
What was measured:
[1] = system: Providencia stuartii; assay: antimicrobial spectrum, agar dilution MIC; format: cell-based; details: strain CMX 640, BHI agar, 20-24 hours
Method: (§1) Twelve petri dishes containing successive aqueous dilutions of the test compound mixed with 10 ml of sterilized Brain Heart Infusion agar (Difco 0418-01-5) are prepared. Each plate is inoculated with 1:100 (or 1:10 for slow-growing strains, primarily Micrococcus and Streptococcus) dilutions of up to 32 different microorganisms, using a Steers replicator block. The inoculated plates are incubated at 35°-37° C. for 20-24 hours. In addition, a control plate, using BHI agar containing no test compound, is prepared and incubated at the beginning and end of each test.
(§2) An additional plate containing a compound having known susceptibility patterns for the organisms being tested and belonging to the same antibiotic class as the test compound is also prepared and incubated as a further control, as well as to provide test-to-test comparability.
(§3) After incubation, each disk is read. The MIC is defined as the lowest concentration of drug yielding no growth, a slight haze, or sparsely isolated colonies on the inoculum spot as compared to the growth control.

[2] = system: Pseudomonas aeruginosa; assay: antimicrobial spectrum, agar dilution MIC; format: cell-based; details: Pseudomonas aeruginosa, BHI agar, 20-24 hours
Method: as §1, §2, §3

[3] = system: Staph. aureus; assay: antimicrobial spectrum, agar dilution MIC; format: cell-based; details: Staphylococcus aureus, BHI agar, 20-24 hours
Method: as §1, §2, §3

[4] = system: Staph. epidermidis; assay: antimicrobial spectrum, agar dilution MIC; format: cell-based; details: Staphylococcus epidermidis, BHI agar, 20-24 hours
Method: as §1, §2, §3

[5] = system: Strep. agalactiae; assay: antimicrobial spectrum, agar dilution MIC; format: cell-based; details: Streptococcus agalactiae, strain CMX 508; BHI agar, 20-24 hours
Method: as §1, §2, §3

[6] = system: Strep. bovis; assay: antimicrobial spectrum, agar dilution MIC; format: cell-based; details: Streptococcus equinus, strain A5169; BHI agar, 20-24 hours
Method: as §1, §2, §3

[7] = system: Strep. faecium; assay: antimicrobial spectrum, agar dilution MIC; format: cell-based; details: Enterococcus faecium, BHI agar, 20-24 hours
Method: as §1, §2, §3

[8] = system: Strep. pyogenes; assay: antimicrobial spectrum, agar dilution MIC; format: cell-based; details: Streptococcus pyogenes, BHI agar, 20-24 hours
Method: as §1, §2, §3

[9] = system: E. coli; assay: antimicrobial spectrum, agar dilution MIC; format: cell-based; details: Escherichia coli, BHI agar, 20-24 hours
[10] = system: Micrococcus luteus; assay: antimicrobial spectrum, agar dilution MIC; format: cell-based; details: 20-24 hours
[11] = system: Lactobacillus Casei; assay: antimicrobial spectrum, agar dilution MIC; format: cell-based; details: Lacticaseibacillus casei, ATCC7469, strain ATCC 7469; BHI agar, 20-24 hours
[12] = system: Ent. aerogenes; assay: antimicrobial spectrum, agar dilution MIC; format: cell-based; details: Klebsiella aerogenes, BHI agar, 20-24 hours
[13] = system: Klebsiella pneumoniae; assay: antimicrobial spectrum, agar dilution MIC; format: cell-based; details: strain 8045, BHI agar, 20-24 hours
[14] = system: Pseudomonas cepacia; assay: antimicrobial spectrum, agar dilution MIC; format: cell-based; details: Burkholderia cepacia, strain 2961; BHI agar, 20-24 hours; read-out: MIC
Method: Erythromycin A was used for this purpose.
After incubation, each disk is read.

[15] = system: Acinetobacter SP; assay: antimicrobial spectrum, agar dilution MIC; format: cell-based; details: strain CMX 669, BHI agar, 20-24 hours
[16] = system: gut contractions (stomach, duodenum, jejunum); details: dog, in vivo, iv, 4 mg/kg
Method: Compounds of this invention have been tested for gastrointestinal stimulating activity in a dog model at 4 mg/kg intravenously. Contractions in the gut were recorded with surgically implanted strain gauges. […] Ratios were calculated for the stomach, duodenum and jejunum, and a final arithmetic mean index was calculated and reported in Table 1.

Row | SMILES | MIC [1] [µg/mL] | MIC ([2]; strain 5007) [µg/mL] | MIC ([2]; strain BMH10) [µg/mL] | MIC ([2]; strain K799/WT) [µg/mL] | MIC ([3]; ATCC6538P, strain ATCC 6538P) [µg/mL] | MIC ([3]; strain 45) [µg/mL] | MIC ([3]; strain 45 RAR 2) [µg/mL] | MIC ([3]; strain A5177) [µg/mL] | MIC ([3]; strain CMX 686B) [µg/mL] | MIC ([4]; strain 3519) [µg/mL] | MIC ([4]; strain 3519 RARI) [µg/mL] | MIC [5] [µg/mL] | MIC [6] [µg/mL] | MIC ([7]; ATCC8043, strain ATCC 8043) [µg/mL] | MIC ([8]; strain 930) [µg/mL] | MIC ([8]; strain EES61) [µg/mL] | MIC ([9]; strain DC-2) [µg/mL] | MIC ([9]; strain H560) [µg/mL] | MIC ([9]; strain JUHL) [µg/mL] | MIC ([9]; strain KNK 437) [µg/mL] | also measured
1 | CC[C@H]1OC(=O)[C@H](C)[C@@H](O[C@H]2C[C@@](C)(OC)[C@@H](O)[C@H](C)O2)[C@H](C)[C@@H](O[C@@H]2O[C@H](C)C[C@H](N(C)C)[C@H]2O)[C@](C)(OC)C[C@@H](C)C(=O)[C@H](C)[C@H]2N(C3CC3)C(=O)O[C@]12C [Example 5, 11-deoxy-6-O-methyl erythromycin A 11,12-(N-cyclopropyl)cyclic carbamate] | > 100 | > 100 | 100 (≈ 123 µM) | > 100 | 0.39 (≈ 0.48 µM) | 0.2 (≈ 0.246 µM) | 0.39 (≈ 0.48 µM) | 1.56 (≈ 1.92 µM) | 0.39 (≈ 0.48 µM) | 0.39 (≈ 0.48 µM) | 0.39 (≈ 0.48 µM) | 0.02 (≈ 0.0246 µM) | 0.02 (≈ 0.0246 µM) | 0.1 (≈ 0.123 µM) | > 100 | 0.02 (≈ 0.0246 µM) | 100 (≈ 123 µM) | 25 (≈ 30.7 µM) | 50 (≈ 61.5 µM) | 100 (≈ 123 µM) | MIC ([2]; strain K799/61): 6.2 µg/mL (≈ 7.63 µM); MIC ([9]; strain SS): 0.2 µg/mL (≈ 0.246 µM); MIC ([10]; strain 4698, BHI agar): 0.2 µg/mL (≈ 0.246 µM); MIC ([10]; strain 9341, BHI agar): 0.05 µg/mL (≈ 0.0615 µM); MIC [11]: 0.05 µg/mL (≈ 0.0615 µM); MIC ([12]; ATCC13048, strain ATCC 13048, read-out: MIC): 100 µg/mL (≈ 123 µM); MIC [13]: 100 µg/mL (≈ 123 µM); MIC [14]: > 100 µg/mL; MIC [15]: 25 µg/mL (≈ 30.7 µM)
2 | CC[C@H]1OC(=O)[C@H](C)[C@@H](O[C@H]2C[C@@](C)(OC)[C@@H](O)[C@H](C)O2)[C@H](C)[C@@H](O[C@@H]2O[C@H](C)C[C@H](N(C)C)[C@H]2O)[C@](C)(OC)C[C@@H](C)C(=O)[C@H](C)[C@H]2N(CCCOCCOC)C(=O)O[C@]12C [Example 1, 11-deoxy-6-O-methylerythromycin A-11,12-(N-methoxyethoxypropyl)cyclic carbamate] |  |  |  |  |  |  |  |  |  |  |  |  |  |  |  |  |  |  | 16 (≈ 18 µM) |  | MIC ([3]; ATCC6538P, strain ATCC 6538P, read-out: MIC): 0.06 µg/mL (≈ 0.0675 µM); MIC ([3]; strain CMX 686B, read-out: MIC): 0.12 µg/mL (≈ 0.135 µM); MIC ([4]; strain 3519, read-out: MIC): 0.06 µg/mL (≈ 0.0675 µM); MIC ([7]; ATCC8043, strain ATCC 8043, read-out: MIC): 0.06 µg/mL (≈ 0.0675 µM); MIC ([8]; strain 930, read-out: MIC): 64 µg/mL (≈ 72 µM); MIC ([8]; strain EES61, read-out: MIC): 0.06 µg/mL (≈ 0.0675 µM)
3 | CC[C@H]1OC(=O)[C@H](C)[C@@H](O[C@H]2C[C@@](C)(OC)[C@@H](O)[C@H](C)O2)[C@H](C)[C@@H](O[C@@H]2O[C@H](C)C[C@H](N(C)C)[C@H]2O)[C@](C)(OC)C[C@@H](C)C(=O)[C@H](C)[C@H]2N(C)C(=O)O[C@]12C [Example 4, 11-deoxy-6-O-methyl erythromycin A 11,12-(N-methyl)cyclic carbamate] | > 100 | 100 (≈ 127 µM) | 50 (≈ 63.5 µM) | 100 (≈ 127 µM) | 0.1 (≈ 0.127 µM) | 0.1 (≈ 0.127 µM) | 0.2 (≈ 0.254 µM) | 0.39 (≈ 0.496 µM) | 0.1 (≈ 0.127 µM) | 0.2 (≈ 0.254 µM) | 0.2 (≈ 0.254 µM) | 0.02 (≈ 0.0254 µM) | 0.02 (≈ 0.0254 µM) | 0.05 (≈ 0.0635 µM) | > 100 | 0.01 (≈ 0.0127 µM) | 25 (≈ 31.8 µM) | 12.5 (≈ 15.9 µM) | 25 (≈ 31.8 µM) | 50 (≈ 63.5 µM) | MIC ([2]; strain K799/61, read-out: MIC): 0.78 µg/mL (≈ 0.991 µM); MIC ([9]; strain SS): 0.1 µg/mL (≈ 0.127 µM); MIC ([10]; strain 4698, BHI agar): 0.05 µg/mL (≈ 0.0635 µM); MIC ([10]; strain 9341, BHI agar): 0.01 µg/mL (≈ 0.0127 µM); MIC [11]: 0.01 µg/mL (≈ 0.0127 µM); MIC ([12]; ATCC10348, strain ATCC 10348): 50 µg/mL (≈ 63.5 µM); MIC [13]: 50 µg/mL (≈ 63.5 µM); MIC [14]: 100 µg/mL (≈ 127 µM); MIC [15]: 12.5 µg/mL (≈ 15.9 µM); Gastrointestinal Motility Index [16]: 1.27
